Results as given in patent US20160046579A1, “THERAPEUTIC COMPOUNDS AND COMPOSITIONS” (AGIOS PHARMACEUTICALS, INC., priority 2013, published 2016).

Assays:
wt PKR [1] = target: T1, wt PKR (Homo sapiens, UniProt P30613); test: wt PKR cell based assay
PKR R532W = PKR R532W (Homo sapiens, UniProt P30613, R532W); test: PKR Mutant Assay, dose response (AC50), PKR R532W; type: biochemical; conditions: PKR R532W mutant enzyme
Protocol: (§1) • PKR or PKR mutant enzyme solution was diluted in assay buffer. • 2 μL of test compound was added into wells first, and then 180 μL reaction mix was added. • Reactions mixture with test compound was assembled except for ADP, and plates were stored for 60 minutes at room temperature. • 20 uL ADP was added to start reaction at room temperature and reaction progress was measured as changes in absorbance at 340 nm wavelength at room temperature.
(§2) Test Compound Preparation: • Test compound stock was made at 100× concentration in 100% DMSO (10 mM) • 1 to 3 dilutions were made for 11 points (i.e. 50 μl of first concentration added to 100 μl 100% DMSO to yield 3.33 mM, 50 μl of this added to 100 μl DMSO to yield 1.11 mM, and so forth) • 1 to 100 dilution into assay (2 μl in 200 μl) yielded starting concentration of 100 μM, decreasing 3 fold for 11 points.

wt PKR [2] = target: T1, wt PKR; test: PKR Mutant Assay, dose response (AC50), wild type PKR enzyme; type: biochemical
Protocol: as §1, §2

PKR R510Q = PKR R510Q (Homo sapiens, UniProt P30613, R510Q); test: PKR Mutant Assay, dose response (AC50), PKR R510Q; type: biochemical; conditions: PKR R510Q mutant enzyme
Protocol: as §1, §2

PKR R532W, sequence (P30613 whole entry R532W): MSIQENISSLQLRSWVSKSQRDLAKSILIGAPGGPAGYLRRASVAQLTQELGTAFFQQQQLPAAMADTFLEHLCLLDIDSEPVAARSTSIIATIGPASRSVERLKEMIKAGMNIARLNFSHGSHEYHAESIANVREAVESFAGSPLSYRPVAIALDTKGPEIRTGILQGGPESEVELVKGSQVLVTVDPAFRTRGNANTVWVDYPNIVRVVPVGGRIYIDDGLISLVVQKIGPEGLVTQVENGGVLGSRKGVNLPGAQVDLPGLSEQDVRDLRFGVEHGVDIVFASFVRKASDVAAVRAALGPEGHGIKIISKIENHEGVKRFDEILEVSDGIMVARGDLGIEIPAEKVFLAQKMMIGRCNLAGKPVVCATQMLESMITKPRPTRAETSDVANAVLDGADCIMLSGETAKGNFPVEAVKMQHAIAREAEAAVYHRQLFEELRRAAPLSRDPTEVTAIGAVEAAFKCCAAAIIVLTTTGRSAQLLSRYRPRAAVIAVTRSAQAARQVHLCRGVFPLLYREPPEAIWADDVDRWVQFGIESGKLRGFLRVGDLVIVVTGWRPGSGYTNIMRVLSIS
PKR R510Q, sequence (P30613 whole entry R510Q): as the sequence (P30613 whole entry R532W) above, with R510Q, W532R counted along it
T1 sequence (P30613 whole entry): as the sequence (P30613 whole entry R532W) above, with W532R counted along it

| AC50 (wt PKR [1]) | AC50 (PKR R532W) | AC50 (wt PKR [2]; wild type PKR enzyme) | AC50 (PKR R510Q) | AC50 (wt PKR [1]; wild type PKR) | AC50 (wt PKR [2]; wild type PKR, enzymatic assay) | SMILES |
| --- | --- | --- | --- | --- | --- | --- |
| 101 to 1000 nM | 101 to 1000 nM | 101 to 1000 nM | 101 to 1000 nM | – | – | O=C(c1ccc(NS(=O)(=O)c2cccc3scnc23)cc1)N1CCC(O)(C2CCC(O)CC2)CC1 (stereo not shown) [Compound 501, N-(4-(4-hydroxy-4-(4-hydroxycyclohexyl)piperidine-1-carbonyl)phenyl)benzo[d]thiazole-4-sulfonamide] |
| – | 101 to 1000 nM | 101 to 1000 nM | 1010 to 10000 nM | – | – | CC(F)(F)CCC1(O)CCN(C(=O)c2ccc(NS(=O)(=O)c3cccc4scnc34)cc2C#N)CC1 [Compound 477, N-(3-cyano-4-(4-(3,3-difluorobutyl)-4-hydroxypiperidine-1-carbonyl)phenyl)benzo[d]thiazole-4-sulfonamide] |
| 1010 to 10000 nM | > 10000 nM | > 10000 nM | – | – | – | CC(C)CC1(OP(=O)(O)O)CCN(C(=O)c2ccc(NS(=O)(=O)c3cccc4scnc34)cc2)CC1 [Compound 524] |
| – | – | – | – | 101 to 1000 nM | < 100 nM | Cc1cc(C2(O)CCN(C(=O)c3ccc(NS(=O)(=O)c4cccc5scnc45)cc3)CC2)sn1 [Compound 528, N-(4-(4-hydroxy-4-(3-methylisothiazol-5-yl)piperidine-1-carbonyl)phenyl)benzo[d]thiazole-4-sulfonamide] |
| 101 to 1000 nM | – | – | 101 to 1000 nM | – | – | O=C(c1ccc(NS(=O)(=O)c2cccc3scnc23)cc1)N1CCC(O)(c2ccns2)CC1 [Compound 515, N-(4-(4-hydroxy-4-(isothiazol-5-yl)piperidine-1-carbonyl)phenyl)benzo[d]thiazole-4-sulfonamide] |
| – | > 10000 nM | > 10000 nM | – | – | – | CC(C)(O)CCCC1(O)CCN(C(=O)c2ccc(NS(=O)(=O)c3cccc4nccnc34)cc2)CC1 [Compound 475] |
| 101 to 1000 nM | – | < 100 nM | – | – | – | O=C(c1ccc(NS(=O)(=O)c2cccc3scnc23)cc1)N1CCC(O)(Cc2nc(Cl)cs2)CC1 [Compound 489, N-(4-(4-((4-chlorothiazol-2-yl)methyl)-4-hydroxypiperidine-1-carbonyl)phenyl)benzo[d]thiazole-4-sulfonamide] |
| < 100 nM | < 100 nM | < 100 nM | < 100 nM | – | – | Cc1ccccc1CC1(O)CCN(C(=O)c2ccc(NS(=O)(=O)c3cccc4scnc34)cc2)CC1 [Compound 125] |
| 101 to 1000 nM | < 100 nM | < 100 nM | 101 to 1000 nM | – | – | Cc1cc(C2(O)CCN(C(=O)c3ccc(NS(=O)(=O)c4cccc5scnc45)cc3)CC2)sn1 [Compound 479] |
| < 100 nM | < 100 nM | < 100 nM | < 100 nM | – | – | Nc1cnc2c(S(=O)(=O)Nc3ccc(C(=O)N4CCC(O)(CCCC(F)(F)F)CC4)cc3)cccc2n1 [Compound 482, 2-amino-N-(4-(4-hydroxy-4-(4,4,4-trifluorobutyl)piperidine-1-carbonyl)phenyl)quinoxaline-5-sulfonamide] |
| – | 1010 to 10000 nM | 1010 to 10000 nM | > 10000 nM | – | – | CCS(=O)(=O)CC1(O)CCN(C(=O)c2ccc(NS(=O)(=O)c3cccc4scnc34)cc2)CC1 [Compound 484] |
| – | 101 to 1000 nM | 1010 to 10000 nM | 1010 to 10000 nM | – | – | O=C(c1ccc(NS(=O)(=O)c2cccc3scnc23)cc1)N1CCC(O)(c2nc(Cl)cs2)CC1 [Compound 481] |
| – | 101 to 1000 nM | 1010 to 10000 nM | > 10000 nM | – | – | O=C(c1ccc(NS(=O)(=O)c2cccc3scnc23)cc1)N1CCC(O)(c2ncc(Cl)s2)CC1 [Compound 509] |
| – | 101 to 1000 nM | 1010 to 10000 nM | > 10000 nM | – | – | CN1CCC(CC2(O)CCN(C(=O)c3ccc(NS(=O)(=O)c4cccc5scnc45)cc3)CC2)C1=O (stereo not shown) [Compound 488] |
| – | 101 to 1000 nM | 101 to 1000 nM | 1010 to 10000 nM | – | – | CS(=O)(=O)CC1(O)CCN(C(=O)c2ccc(NS(=O)(=O)c3cccc4scnc34)cc2)CC1 [Compound 472] |
| – | 1010 to 10000 nM | 101 to 1000 nM | 1010 to 10000 nM | – | – | CC1(O)CCC(C2(O)CCN(C(=O)c3ccc(NS(=O)(=O)c4cccc5scnc45)cc3)CC2)CC1 (stereo not shown) [Compound 504] |
| – | 1010 to 10000 nM | 1010 to 10000 nM | > 10000 nM | – | – | Nc1nc(CC2(O)CCN(C(=O)c3ccc(NS(=O)(=O)c4cccc5scnc45)cc3)CC2)cs1 [Compound 485] |
| – | 1010 to 10000 nM | 1010 to 10000 nM | > 10000 nM | – | – | O=C1NCCC1CC1(O)CCN(C(=O)c2ccc(NS(=O)(=O)c3cccc4scnc34)cc2)CC1 (stereo not shown) [Compound 495] |
| – | > 10000 nM | 1010 to 10000 nM | > 10000 nM | – | – | CS(=O)(=O)CCC1(O)CCN(C(=O)c2ccc(NS(=O)(=O)c3cccc4scnc34)cc2)CC1 [Compound 466] |
| – | > 10000 nM | > 10000 nM | > 10000 nM | – | – | CC(C)CC1(O)CCN(C(=O)c2ccc(NS(=O)(=O)c3cccc4[nH]cnc34)cc2)CC1 [Compound 449] |
| – | 101 to 1000 nM | – | 101 to 1000 nM | – | – | CC(C)CC1(N)CCN(C(=O)c2ccc(NS(=O)(=O)c3cccc4scnc34)cc2)CC1 [Compound 529] |
| – | 1010 to 10000 nM | 1010 to 10000 nM | > 10000 nM | – | – | CCn1cc(CC2(O)CCN(C(=O)c3ccc(NS(=O)(=O)c4cccc5scnc45)cc3)CC2)cn1 [Compound 506] |
| – | > 10000 nM | > 10000 nM | > 10000 nM | – | – | Cn1ccc(C2(O)CCN(C(=O)c3ccc(NS(=O)(=O)c4cccc5scnc45)cc3)CC2)n1 [Compound 450] |
| – | 1010 to 10000 nM | 1010 to 10000 nM | – | – | – | CC(C)(O)CCCC1(O)CCN(C(=O)c2ccc(NS(=O)(=O)c3cccc4scnc34)cc2)CC1 [Compound 476] |

Second part, the compound before the results:

| SMILES | AC50 (wt PKR [1]) | AC50 (PKR R532W) | AC50 (wt PKR [2]; wild type PKR enzyme) | AC50 (PKR R510Q) | AC50 (wt PKR [1]; wild type PKR) | AC50 (wt PKR [2]; wild type PKR, enzymatic assay) |
| --- | --- | --- | --- | --- | --- | --- |
| CC(F)(F)CCC1(O)CCN(C(=O)c2ccc(NS(=O)(=O)c3cc(F)cc4sc(N)nc34)cc2F)CC1 [Compound 483, 2-amino-N-(4-(4-(3,3-difluorobutyl)-4-hydroxypiperidine-1-carbonyl)-3-fluorophenyl)-6-fluorobenzo[d]thiazole-4-sulfonamide] | 101 to 1000 nM | 101 to 1000 nM | < 100 nM | 101 to 1000 nM | – | – |
| O=C(c1ccc(NS(=O)(=O)c2cccc3nccnc23)cc1)N1CCC(O)(c2sncc2Cl)CC1 [Compound 516, N-(4-(4-(4-chloroisothiazol-5-yl)-4-hydroxypiperidine-1-carbonyl)phenyl)quinoxaline-5-sulfonamide] | < 100 nM | – | – | 101 to 1000 nM | – | – |
| O=C(c1ccc(NS(=O)(=O)c2cccc3nccnc23)cc1)N1CCC(O)(Cc2c(O)n[nH]c2C(F)(F)F)CC1 [Compound 523] | 101 to 1000 nM | 101 to 1000 nM | 101 to 1000 nM | 1010 to 10000 nM | – | – |
| CC(C)CC1(O)CCN(C(=O)c2ccc(NS(=O)(=O)c3cnc(O)c4cccnc34)cc2)CC1 [Compound 416] | – | – | – | > 10000 nM | – | – |
| CN1CCC(C2(CO)CCN(C(=O)c3ccc(NS(=O)(=O)c4cccc5scnc45)cc3)CC2)C1=O (stereo not shown) [Compound 487] | – | 1010 to 10000 nM | 1010 to 10000 nM | 1010 to 10000 nM | – | – |
| CC(F)(F)CCC1(O)CCN(C(=O)c2ccc(NS(=O)(=O)c3cccc4nccnc34)cc2C#N)CC1 [Compound 492] | 101 to 1000 nM | 101 to 1000 nM | 101 to 1000 nM | 101 to 1000 nM | – | – |
| CC1(O)CCC(C2(O)CCN(C(=O)c3ccc(NS(=O)(=O)c4cccc5nccnc45)cc3)CC2)CC1 (stereo not shown) [Compound 505] | – | 101 to 1000 nM | 101 to 1000 nM | 101 to 1000 nM | – | – |
| CC(C)CC1(O)CCN(C(=O)c2ccc(NS(=O)(=O)c3cccc4cncnc34)cc2)CC1 [Compound 441] | – | – | 101 to 1000 nM | – | – | – |
| CS(=O)(=O)CCC1(O)CCN(C(=O)c2ccc(NS(=O)(=O)c3cccc4nccnc34)cc2)CC1 [Compound 470] | – | 1010 to 10000 nM | 1010 to 10000 nM | > 10000 nM | – | – |
| CC(C)CC1(OP(=O)(O)O)CCN(C(=O)c2ccc(NS(=O)(=O)c3cccc4nccnc34)cc2)CC1 [Compound 525] | 101 to 1000 nM | – | – | > 10000 nM | – | – |
| O=C(c1ccc(NS(=O)(=O)c2cccc3nccnc23)cc1)N1CCC(O)(c2ccns2)CC1 [Compound 517] | 101 to 1000 nM | – | – | 101 to 1000 nM | – | – |
| CCn1cc(CC2(O)CCN(C(=O)c3ccc(NS(=O)(=O)c4cccc5nccnc45)cc3)CC2)cn1 [Compound 503] | – | 101 to 1000 nM | 101 to 1000 nM | > 10000 nM | – | – |
| CCS(=O)(=O)CC1(O)CCN(C(=O)c2ccc(NS(=O)(=O)c3cccc4nccnc34)cc2)CC1 [Compound 490] | – | 1010 to 10000 nM | 1010 to 10000 nM | > 10000 nM | – | – |
| CS(=O)(=O)CC1(O)CCN(C(=O)c2ccc(NS(=O)(=O)c3cccc4nccnc34)cc2)CC1 [Compound 474] | – | 101 to 1000 nM | 101 to 1000 nM | 1010 to 10000 nM | – | – |
| CC(C)CC1(O)CCN(C(=O)c2ccc(NS(=O)(=O)c3cccc4ncc(O)nc34)cc2)CC1 [Compound 460] | – | > 10000 nM | > 10000 nM | > 10000 nM | – | – |
| Cn1ccc(CC2(O)CCN(C(=O)c3ccc(NS(=O)(=O)c4cccc5nccnc45)cc3)CC2)n1 [Compound 507] | – | 101 to 1000 nM | 101 to 1000 nM | > 10000 nM | – | – |
| O=C1NCCC1CC1(O)CCN(C(=O)c2ccc(NS(=O)(=O)c3cccc4nccnc34)cc2)CC1 (stereo not shown) [Compound 496] | – | 1010 to 10000 nM | 1010 to 10000 nM | > 10000 nM | – | – |
| O=C(c1ccc(NS(=O)(=O)c2cccc3nccnc23)cc1)N1CCC(O)(Cc2nc(Cl)cs2)CC1 [Compound 494] | – | – | – | 101 to 1000 nM | – | – |
